Consider 47 molecules from patent publication US20230109839A1, “THERAPEUTIC AGENT FOR TAUOPATHIES” (SUMITOMO PHARMA CO., LTD., priority 2020, published 2023).

The first assay concerns the target T1, human Nav1.1 (Homo sapiens, UniProt P35498).
T1 construct: host or cells: HEK293
The experiment in a line: Amplification of Nav1.1-derived voltage-gated sodium current (Nav1.1 current), automated patch clamp (Test 1). Type of assay: cell-based. The following applies: Concentration for evaluation 1 μM; HEK293 cell line stably expressing human Nav1.1. Put shortly: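 HEK293 cells stably expressing human Nav1.1, restricted to cells with >500 pA current, were recorded by automated voltage-clamp patch clamp with a ramp voltage stimulus. Compounds were applied in HEPES-buffered extracellular solution with 1% DMSO. Amplification (%) = 100×(peak or AUC after/before compound)−100.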
`CC1CC=C(c2ccc(=O)n(CC(=O)N3CCc4c(Cn5ccnc5)cccc43)n2)CC1` (centres unmarked) [Example 286]: the “Nav1.1 current amplification rate (%)” value came out at 848%.
Still for that read-out and setting: as for `CC1CC=C(c2ccc(=O)n(CC(=O)N3CCc4c(Cn5cncn5)cccc43)n2)CC1` (centres unmarked) [Example 294], the figure is 271%; as for `CC1CC=C(c2ccc(=O)n(CC(=O)N3CCCN(c4cccnc4)CC3)n2)CC1` (centres unmarked) [Example 384], 15%.
The same measure, in the same setting: in the case of `CN(c1cnc2cnn(CC(=O)Nc3ccc4ccncc4c3)c2n1)C1CC1` [Example 732] it was 152%.
Same read-out and setting: as for `CN(c1cnc2cnn(CC(=O)Nc3cccc(N4CCOCC4)c3F)c2n1)C1CCCC1` [Example 671], the figure is 34%; as for `CC1CCN(c2cnc3cnn(CC(=O)Nc4ccc5ncnn5c4)c3n2)CC1(F)F` (centres unmarked) [Example 658], 33%.
For the molecule `O=C(Cn1ncc2cnc(N3CCC4(CCC4)CC3)nc21)Nc1ccn2ncnc2c1` [Example 766], the “Nav1.1 current amplification rate (%)” value is reported as 41%.
On the same count and under the same terms, in the case of `CN(c1cnc2cnn(CC(=O)N3CCc4c(CN5CC=CC5)cccc43)c2n1)C1CC1` [Example 720] it was 230%; in that of `CC1CC=C(c2ccc(=O)n(CC(=O)N3CCc4c(CNCC(F)F)cccc43)n2)CC1` (centres unmarked) [Example 312], 80%; in that of `CN(c1ncc2cnn(CC(=O)Nc3ccn4ncnc4c3)c2n1)C1CC1` [Example 794], 27%.
Still for that read-out and setting: as for `CC1CCN(c2cnc3cnn(CC(=O)Nc4ccc5cncnc5c4)c3n2)CC1` [Example 642], the figure is 252%; as for `Cc1nc2cc(NC(=O)Cn3ncc4ncc(N(C)C5CCCC5)nc43)cnc2s1` [Example 676], 36%; as for `Cc1nc2cc(NC(=O)Cn3ncc4ncc(N(C)C5CCCC5)nc43)ccc2o1` [Example 675], 36%.
On the same count and under the same terms, in the case of `Cc1nccn1-c1ccc(NC(=O)Cn2nc(C3=CCC(C)CC3)ccc2=O)cc1` (centres unmarked) [Example 361] it was 101%.

The same assay, now with this note: Concentration for evaluation 3 μM; HEK293 cell line stably expressing human Nav1.1.
For the molecule `CC1CC=C(c2ccc(=O)n(CC(=O)N3CCc4c(-c5ccncc5)cccc43)n2)CC1` (centres unmarked) [Example 250], the “Nav1.1 current amplification rate (%)” value was 564%.
On the same count and under the same terms, in the case of `CC1CC=C(c2ccc(=O)n(CC(=O)N3CCc4c(C5CN(C(=O)C(C)(C)O)C5)cccc43)n2)CC1` (centres unmarked) [Example 306] it was 532%; in that of `Cc1cc(NC(=O)Cn2nc(C3=CCC(C)CC3)ccc2=O)cc2ncoc12` (centres unmarked) [Example 323], 154%; in that of `CC1CC=C(c2ccc(=O)n(CC(=O)N3CCc4c(CO)cccc43)n2)CC1` (centres unmarked) [Example 266], 108%.
The same measure, in the same setting: in the case of `CC1CC=C(c2ccc(=O)n(CC(=O)N3CCc4c(-c5cn[nH]c5)cccc43)n2)CC1` (centres unmarked) [Example 254] it was 309%.

Still in this assay, the particulars now being: Concentration for evaluation 10 μM; HEK293 cell line stably expressing human Nav1.1.
As to `Cc1noc2ccc(NC(=O)Cn3nc(C4=CCC(C)CC4)ccc3=O)cc12` (racemic) [Example 423], the “Nav1.1 current amplification rate (%)” value came out at 11%.
The same measure, in the same setting: in the case of `Cc1cncc(N2CCN(C(=O)Cn3nc(C4=CCC(C)(C)CC4)ccc3=O)CC2)c1` [Example 442] it was 414%.
Same read-out and setting: as for `COc1cc(=O)n(CC(=O)N2CCc3c(N4CCOCC4)cccc32)nc1C1=CCC(C(F)(F)F)CC1` (centres unmarked) [Example 476], the figure is 343%.
On the same count and under the same terms, as for `CC1CCN(c2ccc(=O)n(CC(=O)Nc3ccc4oc(=O)[nH]c4c3)n2)CC1` [Example 82], the figure is 121%; as for `CC1CC=C(c2ccc(=O)n(CC(=O)NC3CN(c4ccccc4)C3)n2)CC1` (centres unmarked) [Example 372], 52%.
Consider `CC1CCN(c2ccc(=O)n(CC(=O)Nc3cncc(Cl)c3)n2)CC1` [Example 63], for which the “Nav1.1 current amplification rate (%)” value worked out at 49%.
Same read-out and setting: in the case of `CC1CC=C(c2ccc(=O)n(CC(=O)N3CCN(Cc4ccncc4)CC3)n2)CC1` (centres unmarked) [Example 392] it was 53%; in that of `CC1CC=C(c2ccc(=O)n(CC(=O)N3CCN(c4cncc(C(F)(F)F)c4)CC3)n2)CC1` (centres unmarked) [Example 401], 286%.
With `Cc1ccc(-c2nn(CC(=O)Nc3ccn4ccnc4c3)c(=O)c(C)c2C)cc1` [Example 156], the “Nav1.1 current amplification rate (%)” value turned out to be 33%.
With `CC1(C)CCN(c2ccc(=O)n(CC(=O)Nc3ccc(C#N)cc3)n2)C1` [Example 21], the “Nav1.1 current amplification rate (%)” value is 130%.
Still for that read-out and setting: in the case of `CC1CC=C(c2ccc(=O)n(CC(=O)N3CCN(c4cncc(F)c4)CC3)n2)CC1` (centres unmarked) [Example 263] it was 342%.
`CC(C)(C)C1CCN(c2ccc(=O)n(CC(=O)Nc3ccc(C#N)cc3)n2)CC1` [Example 6]: the “Nav1.1 current amplification rate (%)” value is 35%.
As to `COc1cc(C2=CCC(C(F)(F)F)CC2)nn(CC(=O)Nc2ccc3ocnc3c2)c1=O` (racemic) [Example 447], the “Nav1.1 current amplification rate (%)” value came to 148%.

The assay is the same for the next values; noted with them: HEK293, Concentration for evaluation 1 μM; HEK293 cell line stably expressing human Nav1.1; read-out: Nav1.1 current amplification rate (%).
Take `Cc1cc(NC(=O)Cn2ncc3ncc(N(C)CC4CC4)nc32)cc2ncnn12` [Example 745]: the activation at 1 µM amounted to 43%.
On the same count and under the same terms, in the case of `O=C(Cn1ncc2ncc(N3CCC4(CCC4)CC3)nc21)N1CCN(c2cccnc2)CC1` [Example 736] it was 13%; in that of `CN(c1cnc2cnn(CC(=O)Nc3cnc4cccnc4c3)c2n1)C1CC(C)(C)C1` [Example 755], 245%; in that of `CC1CCN(c2cnc3cnn(CC(=O)Nc4ccn5ncnc5c4)c3n2)CC1` [Example 572, 2-[6-(4-Methylpiperidin-1-yl)-1H-pyrazolo[3,4-b]pyrazin-1-yl]-N-([1,2,4]triazolo[1,5-a]pyridin-7-yl)acetamide], 49%.

Still in this assay, the particulars now being: HEK293, Concentration for evaluation 10 μM; HEK293 cell line stably expressing human Nav1.1; read-out: Nav1.1 current amplification rate (%).
As to `O=C(Cn1nc(N2CCCCC2)ccc1=O)Nc1ccc(C(F)(F)F)nc1` [Example 104], the activation at 10 µM was 11%.
For the molecule `Cc1nc2cc(NC(=O)Cn3nc(N4CCCCC4)ccc3=O)ccc2o1` [Example 118], the activation at 10 µM amounted to 7%.
On the same count and under the same terms, as for `O=C(Cn1nc(N2CCCCC2)ccc1=O)Nc1ccnc(C(F)(F)F)c1` [Example 113], the figure is 30%.

The assay is the same for the next values; noted with them: HEK293, concentration for evaluation 0.3 μM; HEK293 stably expressing human Nav1.1; read-out: Nav1.1 current amplification rate (%).
As to `CN(c1ncc2cnn(CC(=O)N3CCc4c(-c5ccnnc5)cccc43)c2n1)C1CC1` [Example 838], the activation at 0.3 µM worked out at 122%.

Staying with this assay, now noted: HEK293, concentration for evaluation 1 μM; HEK293 stably expressing human Nav1.1; read-out: Nav1.1 current amplification rate (%).
On to `Cc1cc(NC(=O)Cn2ncc3cnc(N(C)C4CCCC4)nc32)cc2ncnn12` [Example 837], for which the activation at 1 µM stood at 103%.

Staying with this assay, now noted: concentration for evaluation 1 μM; HEK293 stably expressing human Nav1.1.
For `CN(c1ncc2cnn(CC(=O)Nc3ccn4ncnc4c3)c2n1)C1CCCC1(F)F` (centres unmarked) [Example 801], the “Nav1.1 current amplification rate (%)” value is recorded as 122%.
Still for that read-out and setting: in the case of `CC1CCN(c2ccc3cnn(CC(=O)Nc4ccc5ncnn5c4)c3n2)CC1` [Example 872] it was 38%; in that of `CN(c1ncc2cnn(CC(=O)Nc3ccn4ncnc4c3)c2n1)C1CCC(F)(F)C1` (centres unmarked) [Example 796], 66%; in that of `CC1CC=C(c2cnc3cnn(CC(=O)Nc4ccn5ncnc5c4)c3n2)CC1` (centres unmarked) [Example 896, 2-[6-(4-methylcyclohex-1-en-1-yl)-1H-pyrazolo[3,4-b]pyrazin-1-yl]-N-([1,2,4]triazolo[1,5-a]pyridin-7-yl)acetamide], 241%.
On the same count and under the same terms, in the case of `CN(c1ncc2cnn(CC(=O)Nc3ccn4ncnc4c3)c2n1)C1CC2(CC2)C1` [Example 802] it was 111%.

The same assay, now with this note: concentration for evaluation 50 μM; HEK293 stably expressing human Nav1.1.
`CC1CCN(c2ccc3cnn(CC(=O)Nc4ccc5nccn5n4)c3n2)CC1` [Example 880]: the “Nav1.1 current amplification rate (%)” value came to 42%.
